{"source": "ChEMBL document CHEMBL1201862", "about": "“PubChem BioAssay data set” (2004)", "key": {"[1]": {"molecular_target": "T1, Estrogen receptor (Homo sapiens, UniProt P03372)", "T1 sequence (P03372 whole entry)": "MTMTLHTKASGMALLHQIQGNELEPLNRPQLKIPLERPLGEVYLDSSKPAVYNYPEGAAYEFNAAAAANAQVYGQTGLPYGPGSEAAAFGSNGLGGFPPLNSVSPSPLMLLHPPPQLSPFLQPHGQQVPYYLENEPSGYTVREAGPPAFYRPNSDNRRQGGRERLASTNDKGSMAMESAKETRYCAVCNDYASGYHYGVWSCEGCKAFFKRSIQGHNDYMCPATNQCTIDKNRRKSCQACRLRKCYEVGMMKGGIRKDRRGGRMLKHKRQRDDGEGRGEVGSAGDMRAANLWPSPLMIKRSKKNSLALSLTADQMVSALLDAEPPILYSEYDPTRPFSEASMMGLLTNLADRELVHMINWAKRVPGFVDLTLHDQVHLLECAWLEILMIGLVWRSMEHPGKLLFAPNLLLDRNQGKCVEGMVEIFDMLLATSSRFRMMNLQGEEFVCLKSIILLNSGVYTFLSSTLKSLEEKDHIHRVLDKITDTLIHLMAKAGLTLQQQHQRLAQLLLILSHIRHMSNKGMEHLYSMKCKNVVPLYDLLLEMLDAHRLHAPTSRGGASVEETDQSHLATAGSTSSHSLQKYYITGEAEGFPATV", "assay": "ERα–SRC-3 coactivator interaction inhibitors, confirmation, orthogonal assay, biochemical, ELISA, streptavidin-HRP readout (AID 1079)"}, "[2]": {"assay": "control 3'UTR Renilla luciferase suppression, dose response, counter-screen for Shn3 inhibitor project, cell-based, Clone20-Shn3RL, cherry-picked (AID 624133)", "assay_type": "functional"}, "[3]": {"assay": "Shn3 3'UTR reporter inhibitors, dose response, cell-based, Clone20 osteoblasts, firefly luciferase, cherry-picked (AID 624132)", "assay_type": "functional"}, "[4]": {"molecular_target": "Protein Wnt-3a (Mus musculus, UniProt P27467)", "sequence (P27467 whole entry)": "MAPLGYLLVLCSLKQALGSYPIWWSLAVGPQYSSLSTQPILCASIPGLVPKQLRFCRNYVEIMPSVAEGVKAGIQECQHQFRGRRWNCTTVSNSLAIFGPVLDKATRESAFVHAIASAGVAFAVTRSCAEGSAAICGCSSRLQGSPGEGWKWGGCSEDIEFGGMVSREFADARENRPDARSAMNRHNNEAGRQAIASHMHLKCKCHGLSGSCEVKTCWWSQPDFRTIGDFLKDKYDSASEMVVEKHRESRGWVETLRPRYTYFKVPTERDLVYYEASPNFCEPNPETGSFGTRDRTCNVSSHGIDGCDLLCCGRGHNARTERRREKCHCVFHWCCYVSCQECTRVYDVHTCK", "assay": "Wnt3a-driven reporter signaling inhibition, dose response, selectivity assay for Gli-SUFU antagonist project, Wnt-LIGHT cells, luminescence (AID 651570);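 also: Wnt-LIGHT reporter cells stimulated with conditioned medium from Wnt3a-producing cells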", "assay_type": "functional", "conditions": "read-out: IC50_Mean"}, "[5]": {"molecular_target": "Vasopressin V1a receptor (Homo sapiens, UniProt P37288)", "sequence (P37288 whole entry)": "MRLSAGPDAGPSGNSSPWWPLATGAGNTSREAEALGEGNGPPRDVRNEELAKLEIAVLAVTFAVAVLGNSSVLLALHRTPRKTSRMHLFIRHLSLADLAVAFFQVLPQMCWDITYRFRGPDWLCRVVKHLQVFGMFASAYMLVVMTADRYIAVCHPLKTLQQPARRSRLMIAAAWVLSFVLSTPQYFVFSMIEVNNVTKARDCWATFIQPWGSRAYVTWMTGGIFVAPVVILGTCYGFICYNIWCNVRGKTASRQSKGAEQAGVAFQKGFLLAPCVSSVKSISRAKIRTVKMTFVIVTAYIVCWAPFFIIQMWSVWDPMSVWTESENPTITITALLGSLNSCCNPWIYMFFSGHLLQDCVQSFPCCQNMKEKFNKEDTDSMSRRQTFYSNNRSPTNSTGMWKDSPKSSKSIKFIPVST", "assay": "Counterscreen for Oxytocin Receptor (OXTR) agonists: Fluorescence-based cell-based high throughput dose response assay to identify agonists of the vasopressin 1 receptor (V1R). [Related pubchem assays: 2435 (Primary screen (OXTR agonists in singlicate)), 434991 (Counterscreen (V1R agonists in triplicate)), 2482 (Summary (OXTR agonists)) …", "assay_type": "functional"}, "[6]": {"assay": "HepG2 cell cytotoxicity, dose response, cytotoxicity control for Shn3 inhibitor project, CellTiter-Glo, cherry-picked (AID 624134)", "assay_type": "functional, cell-based"}, "[7]": {"molecular_target": "Oxytocin receptor (Homo sapiens, UniProt P30559)", "assay": "Fluorescence-based cell-based high throughput dose response assay for agonists of the Oxytocin Receptor (OXTR). [Related pubchem assays: 2435 (Primary screen (OXTR agonists in singlicate)), 434991 (Counterscreen (V1R agonists in triplicate)), 2482 (Summary (OXTR agonists)), 434963 (Confirmation screen (OXTR agonists in triplicate))]", "assay_type": "functional"}, "[8]": {"molecular_target": "Glyceraldehyde-3-phosphate dehydrogenase (Homo sapiens, UniProt P04406)", "sequence (P04406 whole entry)": "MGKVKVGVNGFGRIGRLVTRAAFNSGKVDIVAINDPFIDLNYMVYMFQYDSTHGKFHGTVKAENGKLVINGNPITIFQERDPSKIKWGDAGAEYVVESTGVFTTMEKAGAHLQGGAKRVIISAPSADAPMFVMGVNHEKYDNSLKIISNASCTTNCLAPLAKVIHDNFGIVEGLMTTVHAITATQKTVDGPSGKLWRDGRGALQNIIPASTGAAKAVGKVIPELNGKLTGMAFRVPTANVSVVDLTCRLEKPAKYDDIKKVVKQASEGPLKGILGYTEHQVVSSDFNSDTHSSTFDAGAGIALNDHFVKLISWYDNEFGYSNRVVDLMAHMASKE"}, "[9]": {"molecular_target": "T2, Tyrosine-protein phosphatase non-receptor type 7 (Homo sapiens, UniProt P35236)", "T2 sequence (P35236 whole entry)": "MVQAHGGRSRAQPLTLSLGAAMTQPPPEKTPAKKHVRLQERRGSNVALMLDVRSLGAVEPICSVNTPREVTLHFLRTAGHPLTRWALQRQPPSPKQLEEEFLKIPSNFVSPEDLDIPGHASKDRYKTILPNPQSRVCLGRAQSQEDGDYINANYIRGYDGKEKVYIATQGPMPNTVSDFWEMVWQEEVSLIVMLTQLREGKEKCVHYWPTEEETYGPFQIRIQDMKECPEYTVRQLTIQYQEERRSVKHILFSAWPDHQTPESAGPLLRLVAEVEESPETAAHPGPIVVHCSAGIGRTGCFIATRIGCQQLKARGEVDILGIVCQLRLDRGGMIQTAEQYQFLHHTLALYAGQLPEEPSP", "assay_type": "functional"}, "[10]": {"molecular_target": "Heat shock 70 kDa protein 1A (Homo sapiens, UniProt P0DMV8)", "assay": "Hsp70 inhibitors, SAR follow-up, biochemical, fluorescence polarization (AID 1072)"}, "[11]": {"molecular_target": "Heat shock cognate 71 kDa protein (Homo sapiens, UniProt P11142)", "sequence (P11142 whole entry)": "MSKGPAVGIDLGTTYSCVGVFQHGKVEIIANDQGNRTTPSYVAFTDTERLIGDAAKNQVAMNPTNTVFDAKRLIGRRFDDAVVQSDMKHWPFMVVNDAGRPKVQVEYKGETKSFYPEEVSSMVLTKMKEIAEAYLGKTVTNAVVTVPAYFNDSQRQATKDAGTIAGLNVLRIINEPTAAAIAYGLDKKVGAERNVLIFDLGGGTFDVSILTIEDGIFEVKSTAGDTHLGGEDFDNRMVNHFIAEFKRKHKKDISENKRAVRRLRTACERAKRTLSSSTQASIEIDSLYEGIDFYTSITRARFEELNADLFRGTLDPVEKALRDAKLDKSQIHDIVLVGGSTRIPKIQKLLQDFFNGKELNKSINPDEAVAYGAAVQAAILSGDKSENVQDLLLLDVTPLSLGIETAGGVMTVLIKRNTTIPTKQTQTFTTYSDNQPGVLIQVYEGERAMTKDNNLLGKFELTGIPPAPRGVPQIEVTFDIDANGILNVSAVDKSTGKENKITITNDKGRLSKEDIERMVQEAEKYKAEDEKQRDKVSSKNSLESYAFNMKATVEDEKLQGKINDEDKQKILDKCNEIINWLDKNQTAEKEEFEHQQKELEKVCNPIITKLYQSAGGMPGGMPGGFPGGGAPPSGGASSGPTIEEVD", "assay": "In Vitro Hsc70 Dose Response Fluorescence Polarization Assay. [Related pubchem assays: 1072 ]"}, "[12]": {"molecular_target": "T3, Dual specificity protein phosphatase 6 (Rattus norvegicus, UniProt Q64346)", "T3 sequence (Q64346 whole entry)": "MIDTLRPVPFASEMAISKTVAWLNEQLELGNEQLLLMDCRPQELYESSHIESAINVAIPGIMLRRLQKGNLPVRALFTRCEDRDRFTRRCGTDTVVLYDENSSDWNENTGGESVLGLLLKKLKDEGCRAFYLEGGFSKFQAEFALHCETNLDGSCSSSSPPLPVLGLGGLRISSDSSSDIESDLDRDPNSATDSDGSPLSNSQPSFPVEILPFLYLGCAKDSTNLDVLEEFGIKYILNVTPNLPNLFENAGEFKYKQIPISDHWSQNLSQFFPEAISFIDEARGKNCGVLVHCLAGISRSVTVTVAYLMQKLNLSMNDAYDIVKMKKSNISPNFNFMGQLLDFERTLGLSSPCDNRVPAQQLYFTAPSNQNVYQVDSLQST"}, "[13]": {"assay": "cytotoxicity toward Colo320 cells – cell-based, CellTiter-Glo luminescence, IC50, dose response (AID 1117334)", "assay_type": "functional", "conditions": "COLO 320"}, "[14]": {"molecular_target": "Phospholipase A2 (Homo sapiens, UniProt P04054)", "sequence (P04054 whole entry)": "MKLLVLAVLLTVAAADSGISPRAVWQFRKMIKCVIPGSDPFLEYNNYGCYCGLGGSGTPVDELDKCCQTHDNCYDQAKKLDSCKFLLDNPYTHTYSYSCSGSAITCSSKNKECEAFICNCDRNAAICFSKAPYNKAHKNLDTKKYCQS", "assay_type": "functional"}, "[15]": {"molecular_target": "Cytochrome P450 2D6 (Homo sapiens, UniProt P10635)", "sequence (P10635 whole entry)": "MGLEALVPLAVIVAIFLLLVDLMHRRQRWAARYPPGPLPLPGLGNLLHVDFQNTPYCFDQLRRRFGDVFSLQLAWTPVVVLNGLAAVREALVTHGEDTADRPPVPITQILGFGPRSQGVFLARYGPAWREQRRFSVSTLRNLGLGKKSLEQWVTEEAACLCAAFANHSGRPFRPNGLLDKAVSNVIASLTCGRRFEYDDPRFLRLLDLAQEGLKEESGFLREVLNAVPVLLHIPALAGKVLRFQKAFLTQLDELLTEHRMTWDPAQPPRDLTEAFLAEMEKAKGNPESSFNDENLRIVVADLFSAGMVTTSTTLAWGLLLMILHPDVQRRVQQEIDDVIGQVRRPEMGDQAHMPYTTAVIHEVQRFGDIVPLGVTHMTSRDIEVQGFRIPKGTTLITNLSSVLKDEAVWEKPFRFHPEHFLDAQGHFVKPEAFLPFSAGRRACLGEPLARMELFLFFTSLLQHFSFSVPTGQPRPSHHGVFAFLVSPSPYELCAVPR", "assay": "qHTS Assay for Inhibitors and Substrates of Cytochrome P450 2D6. [Related pubchem assays: 410 ]", "assay_type": "ADME", "conditions": "read-out: Potency"}, "[16]": {"molecular_target": "Fatty acid synthase (Homo sapiens, UniProt P49327)", "sequence (P49327 whole entry, the tested form may be a part)": "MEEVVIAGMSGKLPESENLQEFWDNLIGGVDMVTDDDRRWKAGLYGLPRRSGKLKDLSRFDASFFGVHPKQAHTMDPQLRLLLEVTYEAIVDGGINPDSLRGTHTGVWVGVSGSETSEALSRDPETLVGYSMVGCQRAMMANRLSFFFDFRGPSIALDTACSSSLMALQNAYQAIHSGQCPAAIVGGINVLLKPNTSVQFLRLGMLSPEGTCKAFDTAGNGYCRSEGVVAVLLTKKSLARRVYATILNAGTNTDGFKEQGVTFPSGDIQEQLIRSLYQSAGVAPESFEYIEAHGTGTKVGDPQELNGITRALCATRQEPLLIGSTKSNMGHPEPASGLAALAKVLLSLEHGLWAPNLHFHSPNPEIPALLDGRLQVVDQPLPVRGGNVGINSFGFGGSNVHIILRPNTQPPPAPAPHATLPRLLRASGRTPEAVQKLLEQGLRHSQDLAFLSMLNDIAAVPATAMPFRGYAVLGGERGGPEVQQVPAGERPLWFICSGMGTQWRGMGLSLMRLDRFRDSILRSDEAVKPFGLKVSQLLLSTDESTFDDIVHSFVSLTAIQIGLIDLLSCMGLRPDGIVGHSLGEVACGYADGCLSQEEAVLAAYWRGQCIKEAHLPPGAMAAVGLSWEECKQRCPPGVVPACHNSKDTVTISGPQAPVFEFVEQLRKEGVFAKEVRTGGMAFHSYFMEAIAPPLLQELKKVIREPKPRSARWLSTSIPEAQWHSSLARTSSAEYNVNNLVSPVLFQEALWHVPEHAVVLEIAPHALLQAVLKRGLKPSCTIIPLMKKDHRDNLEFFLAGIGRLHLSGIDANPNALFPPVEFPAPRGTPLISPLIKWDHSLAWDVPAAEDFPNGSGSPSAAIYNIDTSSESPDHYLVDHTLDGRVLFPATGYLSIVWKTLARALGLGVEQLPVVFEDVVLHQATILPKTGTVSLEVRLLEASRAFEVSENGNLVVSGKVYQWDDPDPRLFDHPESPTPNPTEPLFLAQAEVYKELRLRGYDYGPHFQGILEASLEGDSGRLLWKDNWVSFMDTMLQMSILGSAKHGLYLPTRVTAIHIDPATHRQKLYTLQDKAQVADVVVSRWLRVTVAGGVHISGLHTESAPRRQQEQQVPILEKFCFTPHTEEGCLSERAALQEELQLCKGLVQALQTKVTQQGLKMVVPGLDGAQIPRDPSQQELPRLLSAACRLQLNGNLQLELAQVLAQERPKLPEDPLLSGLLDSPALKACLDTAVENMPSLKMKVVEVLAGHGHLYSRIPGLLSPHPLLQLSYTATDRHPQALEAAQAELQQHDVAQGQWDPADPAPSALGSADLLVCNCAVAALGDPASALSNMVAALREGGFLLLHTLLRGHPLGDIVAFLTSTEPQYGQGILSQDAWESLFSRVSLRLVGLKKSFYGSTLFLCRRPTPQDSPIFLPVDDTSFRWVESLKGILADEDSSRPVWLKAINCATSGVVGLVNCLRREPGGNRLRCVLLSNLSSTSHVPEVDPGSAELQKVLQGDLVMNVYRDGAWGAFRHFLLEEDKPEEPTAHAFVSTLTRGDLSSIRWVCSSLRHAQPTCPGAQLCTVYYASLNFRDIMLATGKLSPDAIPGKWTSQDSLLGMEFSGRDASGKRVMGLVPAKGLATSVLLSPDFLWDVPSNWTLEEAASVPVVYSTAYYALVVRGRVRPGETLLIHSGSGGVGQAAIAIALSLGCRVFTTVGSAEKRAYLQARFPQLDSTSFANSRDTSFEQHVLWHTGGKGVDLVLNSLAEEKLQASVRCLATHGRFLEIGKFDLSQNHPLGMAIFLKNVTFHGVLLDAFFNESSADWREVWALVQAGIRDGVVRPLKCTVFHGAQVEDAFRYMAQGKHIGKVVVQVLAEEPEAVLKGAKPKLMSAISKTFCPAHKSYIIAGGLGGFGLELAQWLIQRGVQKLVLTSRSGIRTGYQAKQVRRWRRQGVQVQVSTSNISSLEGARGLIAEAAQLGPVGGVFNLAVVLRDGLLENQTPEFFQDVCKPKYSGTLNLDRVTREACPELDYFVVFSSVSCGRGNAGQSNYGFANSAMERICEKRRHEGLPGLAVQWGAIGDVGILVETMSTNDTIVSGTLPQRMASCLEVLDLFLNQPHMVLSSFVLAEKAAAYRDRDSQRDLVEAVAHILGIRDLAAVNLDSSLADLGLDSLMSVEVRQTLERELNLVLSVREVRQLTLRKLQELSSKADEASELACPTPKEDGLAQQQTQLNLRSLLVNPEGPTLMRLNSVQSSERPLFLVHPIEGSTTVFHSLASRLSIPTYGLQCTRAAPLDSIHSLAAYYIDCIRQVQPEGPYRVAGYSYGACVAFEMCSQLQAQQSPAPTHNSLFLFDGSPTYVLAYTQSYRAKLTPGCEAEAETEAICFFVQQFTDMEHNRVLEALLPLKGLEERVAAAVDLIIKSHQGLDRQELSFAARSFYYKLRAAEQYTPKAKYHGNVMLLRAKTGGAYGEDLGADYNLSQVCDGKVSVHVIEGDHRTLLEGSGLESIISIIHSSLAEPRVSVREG", "assay": "FAS thioesterase domain inhibitors, dose response, biochemical, kinetic fluorescence intensity (AID 624326);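 also: rate of fluorescence rise from hydrolysis of a fluorogenic O-methyl fluorescein ester substrate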", "assay_type": "functional"}, "[17]": {"assay": "Glucagon-like peptide 1 release potency, NCI-H716 cell line, dose-response, half-maximal inhibitory concentration (AID 1117344)", "assay_type": "functional, cell-based"}, "[18]": {"assay": "RKO cell viability reduction, dose response, CellTiter-Glo luminescence (AID 1117322)", "assay_type": "functional"}, "[19]": {"molecular_target": "T4, Cysteine protease ATG4B (Homo sapiens, UniProt Q9Y4P1)", "T4 sequence (Q9Y4P1 whole entry)": "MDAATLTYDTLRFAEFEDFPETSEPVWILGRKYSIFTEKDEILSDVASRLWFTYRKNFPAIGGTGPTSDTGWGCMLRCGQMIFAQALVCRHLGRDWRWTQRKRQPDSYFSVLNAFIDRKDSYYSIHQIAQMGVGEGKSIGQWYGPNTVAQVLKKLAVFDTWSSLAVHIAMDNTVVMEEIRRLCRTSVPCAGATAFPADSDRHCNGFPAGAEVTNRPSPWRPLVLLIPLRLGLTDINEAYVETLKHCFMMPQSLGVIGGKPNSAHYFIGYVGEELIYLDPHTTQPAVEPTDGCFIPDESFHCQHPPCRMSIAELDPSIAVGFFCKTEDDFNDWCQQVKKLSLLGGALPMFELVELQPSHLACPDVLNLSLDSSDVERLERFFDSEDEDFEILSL", "assay_type": "functional"}, "[20]": {"assay": "half-maximal inhibitory concentration for glucagon-like peptide-1 release, STC-1 cell line, dose-response (AID 1117345)", "assay_type": "functional, cell-based"}, "[21]": {"molecular_target": "Voltage-gated inwardly rectifying potassium channel KCNH2 (Homo sapiens, UniProt Q12809)", "conditions": "Potency"}, "[22]": {"assay": "SNU-C1 cell viability reduction, dose response, CellTiter-Glo luminescence (AID 1117323)", "assay_type": "functional, cell-based"}, "[23]": {"assay": "cytotoxicity toward HCT116 cells – cell-based, CellTiter-Glo luminescence, IC50, dose response (AID 1117332)", "assay_type": "functional", "conditions": "HCT-116"}, "[24]": {"assay": "CellTiter-Glo luminescent dose response of DLD-1 viability loss (AID 1117352)", "assay_type": "functional"}, "[25]": {"assay": "Concentration-dependent survival of SW480 colon cancer line, luminescence detection with CellTiter-Glo, half-maximal inhibitory concentration (AID 1117338)", "assay_type": "functional"}, "[26]": {"molecular_target": "Heat shock protein HSP 90-alpha (Homo sapiens, UniProt P07900)", "assay_type": "functional, organism-based"}, "[27]": {"assay": "HCT116 cell viability decrease, GSK3B pretreatment – CellTiter-Glo, IC50, dose response (AID 1117339)", "assay_type": "functional", "conditions": "HCT-116"}}, "note": "The source made the active and inactive calls.", "data": [{"smiles": "O=C(CCCCCn1c(=S)[nH]c2ccccc2c1=O)N1CCN(c2cccc(Cl)c2)CC1", "values": [{"measurement": "IC50", "setting": "[1]", "value": "0.35 µM (not active)"}]}, {"smiles": "COc1ccc(CNc2[nH]cnc3c4ccccc4nc2-3)cc1", "values": [{"measurement": "AC50", "setting": "[2]", "value": "5.89 µM (active)"}, {"measurement": "AC50", "setting": "[3]", "value": "4.19 µM (active)"}, {"measurement": "IC50", "setting": "[4]", "value": "12.4 µM (active)"}, {"measurement": "EC50", "setting": "[5]", "value": "> 29.9 µM (not active)"}, {"measurement": "AC50", "setting": "[6]", "value": "28 µM (active)"}, {"measurement": "EC50", "setting": "[7]", "value": "27.4 µM (not active)"}]}, {"smiles": "COC(=O)c1ccccc1OC(=O)c1ccc2c(c1)C1C=CCC1C(C(=O)O)N2", "note": "(configuration not stated)", "values": [{"measurement": "IC50", "setting": "[8]", "value": "93.6 µM (active)"}, {"measurement": "IC50", "setting": "[9]", "value": "2.8 µM (active)"}, {"measurement": "IC50", "setting": "[10]", "value": "28 µM (active)"}, {"measurement": "IC50", "setting": "[11]", "value": "115 µM (active)"}, {"measurement": "IC50", "setting": "[12]", "value": "17 µM (active)"}]}, {"smiles": "Oc1ccc(Cl)cc1Sc1cc(Cl)ccc1O", "note": "[FENTICLOR]", "values": [{"measurement": "IC50", "setting": "[13]", "value": "0.075 µM (active)"}, {"measurement": "IC50", "setting": "[14]", "value": "15.2 µM (active)"}, {"measurement": "AC50", "setting": "[15]", "value": "3.16 µM (inconclusive)"}, {"measurement": "IC50", "setting": "[16]", "value": "3.52 µM (active)"}, {"measurement": "IC50", "setting": "[17]", "value": "21.3 µM (inactive)"}, {"measurement": "IC50", "setting": "[18]", "value": "0.116 µM (active)"}, {"measurement": "IC50", "setting": "[19]", "value": "11 µM (active)"}, {"measurement": "IC50", "setting": "[20]", "value": "> 20 µM (inactive)"}, {"measurement": "AC50", "setting": "[21]", "value": "31.6 µM (inconclusive)"}, {"measurement": "IC50", "setting": "[22]", "value": "1.85 µM (active)"}, {"measurement": "IC50", "setting": "[23]", "value": "0.183 µM (active)"}, {"measurement": "IC50", "setting": "[24]", "value": "0.301 µM (active)"}, {"measurement": "IC50", "setting": "[25]", "value": "0.579 µM (active)"}, {"measurement": "AC50", "setting": "[26]", "value": "4.11 µM (active)"}, {"measurement": "IC50", "setting": "[27]", "value": "0.148 µM (active)"}]}]}
